Test results from the METLIN SMRT retention time set (Domingo-Almenara et al. 2019).

Experiment: gradient 5% acetonitrile 3 min, to 50% in 2 min, to 85% in 15 min, held 3 min, 100 µL/min
Conditions: column: Zorbax Extend-C18 2.1 x 50 mm; eluents: water / acetonitrile, 0.1% formic acid
Outline: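 Pure standards were run in mixtures of ~100 molecules by HPLC coupled to a quadrupole time-of-flight mass spectrometer. The column was a Zorbax Extend-C18 (2.1 × 50 mm, 1.8 μm) at 100 μL/min, with water and acetonitrile each containing 0.1% formic acid, in positive and negative ionization mode. Dead and dwell volumes were 40 μL and 900 μL. Retention time was taken from computationally picked adduct peaks, each manually inspected, with data collected over 3 months.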

Row | Compound | RP-LC retention time
1 | Cc1ccc(Nc2c(-c3cccc(O)c3)nc3ncccn23)cc1C | 705 s
2 | O=C(NCCC1CCN(C(=O)Nc2cc(F)ccc2F)CC1)C1CCCC1 | 769 s
3 | COc1cc2c(cc1Oc1ccc(OC)c3c1CC1c4c(cc(OC)c(OC)c4-3)CCN1C)CC1c3c(cc(OC)c(OC)c3-2)CCN1C (centres undefined) | 616 s
4 | Cc1cc(C)cc(NC(=O)NC2CCN(c3cc(N4CCCC4)cnn3)C2)c1 (centres undefined) | 690 s
5 | Cc1ccc(CNS(=O)(=O)c2ccc(-c3c(C)noc3C)cc2)cc1 | 996 s
6 | CC(NC(=O)Cn1c(C(F)(F)F)nc2cc3c(cc21)OCCO3)c1ccc2c(c1)OCCCO2 (centres undefined) | 855 s
7 | O=C1c2ccccc2C(=O)N1c1ncn[nH]1 | 667 s
8 | Cc1nc(C(=O)Nc2cccc(C(F)(F)F)c2)c(C)o1 | 988 s
9 | COc1ccc(-c2cc3c(=O)n(Cc4ccc(F)cc4)ccn3n2)cc1OC | 913 s
10 | COc1ccc(NC(=O)c2cnc(-c3ccc(OC)cc3)nc2-c2ccncc2)cc1 | 829 s
11 | Cc1[nH]nc(-c2ccc(S(=O)(=O)NC(C)C)o2)c1C | 729 s
12 | CCOC(=O)c1ccc(OC(=O)CCCCCN=C(N)N)cc1 | 750 s
13 | COc1ccc(OC)c(S(=O)(=O)N2CCc3nc(-c4ccc(Cl)cc4)ncc3C2)c1 | 1160 s
14 | Fc1ccc(Cc2nc(-c3ccc4nncn4c3)no2)cc1 | 770 s
15 | CC1(C)CCC[C@@](C)([C@H]2CC[C@]3(C)[C@@H]2[C@H](O)C[C@@H]2[C@@]4(C)CC[C@H](O)C(C)(C)[C@@H]4[C@@H](O)C[C@]23C)O1 | 1150 s
16 | Nc1nc(=O)n(C2CS[C@H](CO)O2)cc1F (some centres undefined) | 571 s
17 | Cc1nn(-c2cc(N3CCOCC3)ncn2)c(C)c1CCC(=O)N1CCN(c2ccccn2)CC1 | 618 s
18 | CCCN(CCC)C(=O)Cn1c(CO)nc2ccccc21 | 623 s
19 | COC(=O)c1ccc(C(=O)OC)c(=O)[nH]1 | 638 s
20 | COc1ccc(-c2cc3n(n2)CCCN(S(=O)(=O)c2cccc4cccnc24)C3)cc1 | 907 s
21 | CCCn1nc2ccc(S(=O)(=O)N3CCOCC3)cn2c1=O | 696 s
22 | CCCOc1ccc(C2C(C(=O)N3CCOCC3)=C(C)NC3=C2C(=O)CCC3)cc1OC (centres undefined) | 964 s
23 | Cc1cc(C)n(CCNc2nc3c(F)cc(F)cc3s2)n1 | 732 s

Row | Compound | RP-LC retention time
24 | COc1cc(OC)c(NC(=O)N2CCC(CN3CCCC(C)C3)CC2)cc1Cl (centres undefined) | 630 s
25 | O=C(CCCn1c(=O)c2cccn2c2ccc(Br)cc21)NCc1ccc2c(c1)OCO2 | 915 s
26 | COC(=O)c1ccc(NC(=O)Cn2cnc3nc(N4CCCC4)ncc3c2=O)cc1 | 690 s
27 | Cc1cccn2c(=O)c(-c3nn[nH]n3)cnc12 | 646 s
28 | O=C(NC1CCCCC1)C1CCCN(S(=O)(=O)c2c[nH]c(C(=O)N3CCCC3)c2)C1 (centres undefined) | 759 s
29 | Cc1ccc(-c2nccn3cc(C(=O)NCc4ccncc4)nc23)cc1 | 633 s
30 | Cc1nc2cc(-c3noc(-c4cccc(C(F)(F)F)c4)n3)ccc2o1 | 1220 s
31 | CCN(CC)c1ccc(Nc2nc(-c3ccc(F)c(C)c3)cs2)cc1 | 834 s
32 | OCCNc1nc(N2CCOCC2)nc2c1cnn2-c1ccc(Cl)cc1 | 824 s
33 | Cn1ncc(N2CCCC(CC(=O)N3CCSCC3)C2)cc1=O (centres undefined) | 666 s
34 | Fc1cccc(-c2nnc(Cc3nc(-c4ccc(Cl)cc4)no3)o2)c1 | 1110 s
35 | COc1cc(Cl)c(NC(=O)C2CCN(C(=O)c3cc(-c4ccncc4)n[nH]3)CC2)c(OC)c1 | 629 s
36 | O=S(=O)(NC1CCCCC1)c1ccc(-c2cc(C(F)(F)F)on2)o1 | 1120 s
37 | Cc1ccc(Cn2cccc2-c2nc(-c3ccc(F)cc3)no2)cc1 | 1460 s
38 | COc1ccc(NC(=O)c2nc(N3CCSCC3)c3cnn(C)c3n2)cc1 | 814 s
39 | CCN1CCN(CCCNC(=O)C2CCN(c3nc4cccnc4n(CC)c3=O)CC2)CC1 | 580 s
40 | CCOc1ccc(N2C=C(C(=O)N3CCOCC3)S(=O)(=O)c3ccc(F)cc32)cc1 | 845 s
41 | CCc1ccc(NS(=O)(=O)c2c(C)sc(C)c2-c2cc(C)[nH]n2)cc1 | 1130 s
42 | CNC(=O)N1CCc2ccc(C(=O)NC(C)(C)C)cc21 | 661 s
43 | O=C(CC1CCCN(c2cn[nH]c(=O)c2)C1)Nc1ccc2c(c1)OCCO2 (centres undefined) | 639 s
44 | COc1ccc(Nc2cc(C(=O)N3CCCCC3)nc3c(OC)cccc23)cc1OC | 570 s
45 | O=C(CN1CCc2[nH]c3c(F)c(Cl)ccc3c(=O)c2C1)Nc1cc(F)ccc1F | 691 s
46 | O=C(c1ccc2ccccc2n1)N1CCN(C(=O)c2nnn3c2COC(c2ccccc2)C3)CC1 (centres undefined) | 833 s

Second part, the molecule after the results:

Row | RP-LC retention time | Compound
47 | 623 s | CCn1c(N2CCN(C(=O)Nc3cc(OC)c(OC)c(OC)c3)CC2)nc2ccccc21
48 | 593 s | NC(=O)C1CCN(c2ccc3cccc(OCc4ccccc4Cl)c3n2)CC1
49 | 577 s | O=C(CCc1csc(NC(=O)c2ccc(F)cc2)n1)NCc1nc2ccccc2[nH]1
50 | 682 s | COc1cc(NC(=O)N2CCCC(Cn3cnc4cccnc43)C2)cc(OC)c1 (centres undefined)
51 | 705 s | CC[C@H](C)NC(=O)Cc1nnc(-c2ccccc2)o1
52 | 591 s | CCOC(=O)C1CCc2sc(NC(=O)CNC(=O)c3ccc(=O)[nH]c3)nc21 (centres undefined)
53 | 1090 s | CCOC(=O)c1cc(S(=O)(=O)N2CCN(c3cccc(C)c3)C(C)C2)c(C)n1C (centres undefined)
54 | 784 s | Cc1cc2c(c(=O)n(-c3ccccc3)c(=O)n2CC(=O)Nc2cccc(C#N)c2)n1C
55 | 566 s | O=C(NCc1ccsc1)C(=O)Nc1cccnc1
56 | 1120 s | COC1CN(c2cccc(F)c2)C12CCN(C(=O)C1(c3ccccc3)CC1)CC2 (centres undefined)
57 | 699 s | Cc1nc(N(C)C(=O)Cc2ccc(-c3ccccn3)cc2)sc1S(N)(=O)=O
58 | 575 s | COc1nn(C)cc1C(=O)Nc1ccc(-c2cn3ccsc3n2)cc1
59 | 914 s | CCc1noc(NC(C)=O)c1-c1ccc(C)c(S(=O)(=O)NCc2ccccc2Cl)c1
60 | 650 s | CC(=O)N1CCc2cc(S(=O)(=O)NCCn3nc(-c4cccs4)ccc3=O)ccc21
61 | 867 s | CCOC(=O)c1csc(NC(=O)Nc2cccc(Cl)c2)n1
62 | 1300 s | CCCC(NC(=O)C1CCCN(c2nc3c(s2)c(C)nn3-c2ccc(C)cc2)C1)c1cccs1 (centres undefined)
63 | 807 s | CC(C)n1cnc(S(=O)(=O)N2CCC(C(=O)N3CCN(c4ccccc4F)CC3)CC2)c1
64 | 628 s | CNC(=O)C1CCCN(c2nc3ncn(CC(=O)Nc4ccccc4C)c(=O)c3s2)C1 (centres undefined)
65 | 718 s | Cc1cc(C)n(-c2cc(NCCNC(=O)c3ccc(Br)o3)ncn2)n1
66 | 886 s | COc1ccc(OC)c(NC(=O)NC2CCN(c3nc4ccccc4n(C)c3=O)CC2)c1
67 | 1080 s | CC1CCc2c(C(=O)NCCc3ccccc3)csc2C1 (centres undefined)
68 | 892 s | Cc1ccc(NC(=O)N(C)CCc2noc(COc3ccccc3)n2)cc1

Row | RP-LC retention time | Compound
69 | 863 s | O=C(CCc1nc(CSc2nnc(-c3ccccc3)o2)no1)Nc1ccccc1
70 | 754 s | CCn1cnc(S(=O)(=O)N2CCC(C(=O)N3CCc4ccccc43)CC2)c1
71 | 838 s | CC(C)CCNC(=O)C1(C)Cn2nc(C(=O)NCc3ccccc3Br)cc2C(=O)N1C (centres undefined)
72 | 804 s | CCOc1cc(=O)n2c(c1C(=O)Nc1cccc3c1CCCC3)CCCC2
73 | 983 s | CCc1ccc(CNC(=O)C2Cc3cc(S(=O)(=O)N4CCCCC4)ccc3N2C(C)=O)cc1 (centres undefined)
74 | 793 s | COc1ccc(NC(=O)C2CC(=O)N(CCc3c[nH]c4ccc(F)cc34)C2)c(OC)c1 (centres undefined)
75 | 782 s | Cc1ccc(-c2cc3c(N4CCCC(C(=O)NC5CC5)C4)nccn3n2)c(C)c1 (centres undefined)
76 | 688 s | Clc1ccc(-c2ccc(CNCC3CCCO3)o2)cc1 (centres undefined)
77 | 869 s | COc1ccc(-c2noc(CSc3nccn3-c3ccccc3)n2)cc1
78 | 835 s | Cc1ccc2[nH]cc(CCN3CC(C(=O)Nc4ccc(F)cc4F)CC3=O)c2c1 (centres undefined)
79 | 930 s | CCCCCNC(=O)C1CCN(c2ccc(Sc3cc(C)ccc3C)nn2)CC1
80 | 743 s | CCOc1ccc(CNC(=O)C2CCN(C(=O)C3Sc4ccccc4NC3=O)CC2)cc1 (centres undefined)
81 | 704 s | Cc1ccc(Nc2nc(C)cc(N3CCN(C(=O)Nc4ccccc4C)CC3)n2)cc1
82 | 625 s | CCCNC(=O)CCc1c(-c2ccc(Cl)cc2)nc2ccccn12
83 | 650 s | Cc1cc(-c2csc(S(=O)(=O)NCCCN3CCN(Cc4ccccc4)CC3)c2)on1
84 | 608 s | CCN(CCNS(=O)(=O)c1ccc2c(c1)CCCC(=O)N2)Cc1ccccc1
85 | 723 s | CC1CN(CC(=O)N2CCN(Cc3ccc4c(c3)OCO4)CC2)c2ccccc2S1 (centres undefined)
86 | 674 s | CCc1ccccc1NC(=O)Cn1c(N2CCOCC2)nc(C)cc1=O
87 | 867 s | CC1=C(c2ccc(C)cc2)S(=O)(=O)N=C1N1CCC(NC(=O)Cc2ccsc2)CC1
88 | 792 s | CN(C)C(=O)c1csc(S(=O)(=O)N2CCC(C(=O)Nc3ccc(F)cc3Cl)CC2)c1
89 | 700 s | c1cc(CN2CC(Oc3ccc(-c4noc(C5CC5)n4)cc3)C2)cs1
